Source: PMC12196810, “A Dual Bioassay for Evaluation of Embryotoxicity and Acute Toxicity of Common Solvents and Surfactants in Artemia salina” (Toxics, 2025)
Entries after “also recorded” stand apart in the source; their conditions may differ.

Columns and labels:
Artemia salina cysts [1] = assay: Hatching and development of nauplii (stage groups A–D); assay type: in vivo; details: for individuals reaching Group D (Instar I–III): 48 h
Procedure: Each sample was monitored using a stereo-microscope (STMLAB, Monza, Italy) and a bright-field microscope (Euromex, Bscope series, Groningen, The Netherlands) at both moments of determination. After 48 h, a mixture of ethanol and acetic acid in the ratio of 3:1 (v/v) was added to each sample to ensure the preservation for further observations. Depending on the development stage of each sample, the hatching process was divided into four main groups (A–D), and expressed as percents (%). The first group were the unhatched eggs (group A) that remain unchanged between the rehydration operation and the moment of observation; in the second group were the eggs with a broken shell (group B) with evident cracks and modified shape; the third category corresponds to the hatching moment, and it was noted as stage 0 (group C), when the nauplii are pear-shaped or umbrella-shaped and immobile; the fourth stage corresponds to larval stages that comprise the naupliar development stages Instar I–III (group D). All samples were compared to the untreated control to identify non-disruptive concentrations and solvent compatibility for future hatching assays.

Artemia salina cysts [2] = assay: Hatching inhibition test; assay type: in vivo; details: for IC50 (hatching inhibition): cysts, 0.1–2.5% (w/v) tested; for inhibition of hatching, in words: 0.1–2.5%
Procedure: SLS was used as positive control and artificial sea water as negative control. The determination was performed according to the protocols described in the literature, with some modifications.
Each sample was performed in duplicate, and artificial sea water was used as control. The hatching process was monitored at 24 and 48 h, and stages 0 and Instar I–III were considered for the quantification. Randomization and blinding were not applied in the assays, as the evaluation of developmental stages is considered objective and unlikely to be influenced by observer bias. The inhibition of the hatching (HI) process was calculated versus the control using the formula presented by Rotini et al.. HI50 was calculated by interpolating on the curves plotted, using the logarithm of concentrations and the hatching inhibition (%) with the least square fit method.

Artemia salina nauplii = assay: Brine shrimp lethality test; details: for toxicity in the lethality test, in words: 24 and 48 h, 0.05–5% (w/v); for LC50: nauplii, 0.05–5.0% (w/v) tested; for LC50 values: both timepoints (24 and 48 h), summary statement
Procedure: Artemia salina cysts were hatched in beakers filled with artificial sea water at a salinity of 35 g/L, under continuous aeration, and at a temperature of 25 ± 1 °C for 48 h and a light/dark cycle of 16/8 h. The constant conditions were maintained using a plant growth chamber (Sanyo MLR-351 H, San Diego, CA, USA). After hatching, the Artemia nauplii were separated and brought in aerated fresh artificial sea water. A number of ten nauplii were added in tissue culture plates containing 24 wells (Greiner Bio-One, Kremsmünster, Austria), along with the tested solutions [29, 30]. […] Artificial sea water was used as negative control and sodium lauryl sulfate as positive control. The artificial seawater was prepared according to the instructions provided by the Artemia egg manufacturer, using the supplied salts dissolved in distilled water. A total of 5 L was prepared, aerated, and stored at 4 °C, in dark for no more than two weeks. Before use, the artificial seawater was aerated again. […] The lethality values were calculated and were plotted against the logarithm of concentrations, using the least square fit method to obtain lethality curves. […] The photographs were taken using an ODC 825 Microscope Digital Camera (KERN, Balingen, Germany), with a resolution of 5.1 MP and a 1/2.5″ Aptina CMOS sensor, and processed using Microscope-VIS software 2.0 (KERN Balingen, Germany).

[3] = all concentrations (0.1–2.5%), 24 and 48 h
[4] = 48 h, all concentrations (0.05–5%)

Compound	toxicity in the lethality test, in words (Artemia salina nauplii)	LC50 (Artemia salina nauplii; 24 h exposure) [%]	lethality (Artemia salina nauplii; 48 h, concentrations ≥ 1%) [%]	LC50 (Artemia salina nauplii; 48 h exposure) [%]	effect on development, in words (Artemia salina cysts [1]; 0.1–2.5%, 24 and 48 h)	inhibition of hatching, in words (Artemia salina cysts [2]; 24 and 48 h)	further results
CCN(CC)C(=O)c1cccnc1 [DENA, N,N-diethylnicotinamide]	highly toxic	0.22	100	0.05			effect on development, in words (Artemia salina cysts [1]; at 2.5%): development was arrested in Groups A and B; IC50 (hatching inhibition) (Artemia salina cysts [2]; 24 h): 0.97%; IC50 (hatching inhibition) (Artemia salina cysts [2]; 48 h): 1.10%; inhibition of hatching (Artemia salina cysts [2]; at 2.5%): full inhibition; lethality (Artemia salina nauplii; 48 h, at 0.1%): 45%
CN(C)C(=O)c1ccccc1 [DMBA, N,N-dimethylbenzamide]	highly toxic	0.13	100	0.09			effect on development, in words (Artemia salina cysts [1]; from 0.5% upward): no significant presence in Group D; IC50 (hatching inhibition) (Artemia salina cysts [2]; 24 h): 0.27%; inhibition of hatching (Artemia salina cysts [2]; 24 h, high concentrations): exceeding 90%; IC50 (hatching inhibition) (Artemia salina cysts [2]; 48 h): 19.23%; lethality (Artemia salina nauplii; 24 h, down to 0.5%): 100%; lethality (Artemia salina nauplii; 48 h, at 0.1%): 75%; LC50 values (Artemia salina nauplii): ≤ 1%
CN(C)C=O [DMF, dimethylformamide]	moderate toxicity	1.24		1.06			lethality (Artemia salina nauplii; 48 h, at 1%): up to 80%
C[S+](C)[O-] [DMSO, dimethyl sulfoxide]	moderate-to-low toxicity; also recorded: very low toxicity				very low developmental toxicity	very low or no inhibition; also recorded: minimal or no inhibition	embryos developed fully (Group D) (Artemia salina cysts [1]; at 2.5%): over 80%; toxicity in the lethality test, in words (Artemia salina nauplii; listed as dimethyl sulfoxide): low toxicity; lethality (maximum) (Artemia salina nauplii; 24 h, at 0.1%): 25%; lethality (peak) (Artemia salina nauplii; 48 h, at 0.5%): 45%
CN(C)C(N)=O [DMU, N,N-dimethylurea]	moderate toxicity	0.94	100	0.08			individuals reaching Group D (Instar I–III) (Artemia salina cysts [1]; at 0.1%): over 80%; inhibition of hatching (Artemia salina cysts [2]; [3]): under 50%
OCC(O)CO [GLY, glycerol]	very low toxicity				negligible impact on development	very low or no inhibition; also recorded: minimal or no inhibition	toxicity in the lethality test, in words (Artemia salina nauplii; listed as Glycerin): low toxicity; lethality (Artemia salina nauplii; [4]): up to 40%
CC(O)CO (stereo not shown) [PDO, propylene glycol]	very low toxicity			1.64	minimal interference	very low or no inhibition; also recorded: minimal or no inhibition	toxicity in the lethality test, in words (Artemia salina nauplii; listed as propylene glycol): low toxicity; lethality (Artemia salina nauplii; 48 h, highest concentration (5%)): 95%
Cc1ccc(S(=O)(=O)O)cc1.[Na] [PTS, sodium p-toluenesulfonate]	highly toxic		100				individuals reaching Group D (Instar I–III) (Artemia salina cysts [1]; at 1%): over 60%; effect on development, in words (Artemia salina cysts [1]; at 2.5%): Groups A and B became dominant; IC50 (hatching inhibition) (Artemia salina cysts [2]; 24 h): ~2.49%; inhibition of hatching (Artemia salina cysts [2]; at 2.5%): strong suppression; lethality (Artemia salina nauplii; 24 h, highest concentration (5%)): 100%; lethality (Artemia salina nauplii; 48 h, at 0.1%): 90%; LC50 values (Artemia salina nauplii): ≤ 1%
O=S(=O)([O-])c1cccc(S(=O)(=O)[O-])c1.[Na+].[Na+] [SBDS, sodium benzene-1,3-disulfonate]					low impact on embryonic development		inhibition of hatching (Artemia salina cysts [2]; [3]): under 50%
O=S(=O)([O-])c1ccccc1.[Na+] [SBS, sodium benzenesulfonate]	moderate toxicity	0.93	100	0.21	moderate developmental delay	only moderate suppression	
CCCCCCCCCCCCOS(=O)(=O)[O-].[Na+] [SLS, sodium lauryl sulfate, reference compound]	highly toxic; also recorded: such high mortality at all tested concentrations				complete developmental arrest	complete or near complete inhibition	lethality (Artemia salina nauplii; 24 h, across all concentrations (0.05–5%)): 100%; lethality (Artemia salina nauplii; [4]): 100%
NC(N)=O [Urea, urea]	moderate toxicity	1.11		0.74			effect on development, in words (Artemia salina cysts [1]; at 2.5%): some developmental delay; inhibition of hatching (Artemia salina cysts [2]; [3]): under 50%
Tween 20	such high mortality at all tested concentrations						
Tween 80	such high mortality at all tested concentrations						
sodium xylenesulfonate [SXS]		1.01	100	0.79			effect on development, in words (Artemia salina cysts [1]; at 2.5%): no development beyond Group B occurred; IC50 (hatching inhibition) (Artemia salina cysts [2]; 24 h): 0.28%; IC50 (hatching inhibition) (Artemia salina cysts [2]; 48 h): 0.41%; inhibition of hatching (Artemia salina cysts [2]; at 2.5%): 100%; LC50 values (Artemia salina nauplii): ≤ 1%
